# Experiments:
# TNF = target: T1, TNF (Homo sapiens, UniProt P01375); assay: ELISA binding activity of matured complexes, TNF (Example 13); conditions: approximate; plates coated with 0.5 μg/ml TNF
# T1 construct: purchased R&D Systems
# Procedure: The binding of TNF and IL-6 targeting complexes was analyzed in an ELISA assay. Half-area 96-well ELISA plates were directly coated at 4° C. overnight with 0.5 μg/ml of TNF or IL-6 in PBS buffer and the wells were blocked with 100 μl of 3% skim milk/PBS (137 mM NaCl, 2.7 mM KCl, 10 mM Na2HPO4, 1.8 mM KH2PO4) for 1 h at RT. Next, 30 μl of serially diluted complexes and control antibodies from a starting concentration of 1 μg/ml in 3% skim milk/PBS were added to each well. The plates were incubated for 2 h at RT followed by washing four times with PBST 0.05%. HRP conjugated anti-human IgG Fc secondary antibody (Pierce, cat. no. 31423) was diluted 1:5000 in 3% skim milk/PBS and added to the wells followed by 1 h incubation. After washing as described above, 30 μl ImmunoPure TMB substrate (Pierce, cat. no. 34014) was added to the wells and the plates were treated according to the manufacturer's recommendations. Adalimumab (Abbvie, LOT4435XH04) was used as a positive control for the TNF binding activity and as a negative control for the IL-6 binding activity. Furthermore, an irrelevant IgG (Jackson Immunoresearch, cat. no. Jac-009-000-003) was included as a negative control in both assays.
# [1] = system: IL-6/TNF-dependent proliferation of TF-1 cells; assay: TF-1 cell assay, stimulated with both IL-6 and TNF (Example 11); type: cell-based, human; conditions: TF-1 cells simultaneously stimulated with IL-6 and TNF
# Procedure: TF-1 cells were cultured in RPMI1640 with L-glut (Lonza) supplemented with 10% FCS (Gibco), Pen-Strep (Lonza) and 2 ng/ml rhGM-CSF (R&D Systems). Prior to use, the cells were washed twice in RPMI1640 in the absence of rhGM-CSF. Cells were then counted and dispensed into 96 well flat bottomed plates at a density of 4×10^4 cells per well. […] The samples were incubated in the presence of either 0.099 nM rhIL-6 (R&D Systems, cat. no. 206-IL/CF), 0.023 nM rhTNF (R&D Systems, cat. no. 210-TA) or a combination of both cytokines. The pre-mixtures were transferred to wells containing TF-1 cells which were incubated for 72 h at 37° C. in a humidified 5% CO2 atmosphere. During the last four hours of incubation, 10 μl of CCK-8 (Fluka, Sigma Aldrich) was added per well to determine the number of proliferating cells. The absorbance was measured at 450 nm (Abs450) using a microplate reader (VICTOR^3, Perkin Elmer). The data on cell growth was assessed by non-linear regression to a four-parameter dose-response curve, and the half maximal inhibitory concentration (IC50) was determined using GraphPad Prism program. The inhibition of IL-6/TNF-dependent proliferation of TF-1 cells by the inhibitory molecules was as Abs450 minus control wells that contained cells but no IL-6.
# [2] = system: IL-6 trans-signaling in human umbilical vein endothelial cells (HUVECs); assay: HUVEC trans-signaling assay, MCP-1 readout; type: cell-based; conditions: Z variants fused to ABD variant PP013
# Procedure: To address the trans-signaling pathway, a second assay was used. Herein, human umbilical vein endothelial cells (HUVECs) were stimulated with hIL-6 and soluble hIL-6Rα and the readout was the production of monocyte chemoattractant protein-1 (MCP-1). HUVECs (Lonza) were grown in EGM-2 bullet kit media (Lonza) and passaged in culture no more than eight times. Cells were grown until 75% confluence before use. Cells were detached using trypsin/EDTA (Lonza), resuspended and washed once in fresh medium. Next, cells were counted and dispensed into 96 well flat bottom plates at a density of 2×10^4 cells per well. Cells were cultured overnight at 37° C. in a humidified 5% CO2 atmosphere. […] The pre-mixed solutions with the test molecules and hIL-6/hIL-6Rα were then transferred to wells containing HUVECs, which were incubated for 24 h at 37° C. in a humidified 5% CO2 atmosphere. Cell free supernatant was collected after the incubation period and human MCP-1 levels were determined by sandwich ELISA using the MCP-1 Duoset ELISA development system (R&D Systems).
# Half area 96-well ELISA plates were coated with anti-MCP-1 capture antibody (R&D Systems) at a concentration of 1 μg/ml. Plates were incubated overnight at 4° C., washed twice in tap water and blocked for 1 h in PBSC. […] The absorbance was measured at 450 nm using a microplate reader (Victor^3, Perkin Elmer).
# [3] = RA patients, monotherapy, Gabay et al 2013; cited from earlier work
# T1 sequence (P01375 77-233 limits assumed): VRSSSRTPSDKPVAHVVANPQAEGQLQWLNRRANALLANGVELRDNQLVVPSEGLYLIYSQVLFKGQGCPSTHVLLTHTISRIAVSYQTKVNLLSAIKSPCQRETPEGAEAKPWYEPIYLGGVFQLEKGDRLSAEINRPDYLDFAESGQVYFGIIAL
substance,measurement,setting,value
Adalimumab,EC50,TNF,77 pM
His6-Z04726: negative control Z variant Z04726 (SEQ ID NO:1553) with N-terminal His6-tag [reference compound],blocking of TF-1 cell growth,[1],No effect
Z03638: control Z variant binding an irrelevant target; tested in fusion with ABD variant PP013 [reference compound],inhibition of IL-6 mediated trans-signaling,[2],did not
tocilizumab,reduction of RA-related symptoms,[3],more effective than adalimumab

# From patent US10633423B2, “IL-6-binding polypeptide complex” (AFFIBODY AB, priority 2014, dated 2020)
